Earlier results, collected in patent US10160759B2, “Hydroxyethyl sulfonate of cyclin-dependent protein kinase inhibitor, crystalline form thereof and preparation method therefor” (Jiangsu Hengrui Medicine Co., Ltd., priority 2015, dated 2018).

Details: patients, clinical trial NCT00721409

N#Cc1ccc(C(c2ccc(C#N)cc2)n2cncn2)cc1 [letrozole]
progression-free survival (PFS): 7.5 months
